Consider seven compounds from PMC2193054 (The Journal of Experimental Medicine, 1999).

Data set [1] concerns the target T1, E. coli glutamine synthetase (Escherichia coli, UniProt P0A9C5).
T1 sequence (P0A9C5 2-469 limits assumed): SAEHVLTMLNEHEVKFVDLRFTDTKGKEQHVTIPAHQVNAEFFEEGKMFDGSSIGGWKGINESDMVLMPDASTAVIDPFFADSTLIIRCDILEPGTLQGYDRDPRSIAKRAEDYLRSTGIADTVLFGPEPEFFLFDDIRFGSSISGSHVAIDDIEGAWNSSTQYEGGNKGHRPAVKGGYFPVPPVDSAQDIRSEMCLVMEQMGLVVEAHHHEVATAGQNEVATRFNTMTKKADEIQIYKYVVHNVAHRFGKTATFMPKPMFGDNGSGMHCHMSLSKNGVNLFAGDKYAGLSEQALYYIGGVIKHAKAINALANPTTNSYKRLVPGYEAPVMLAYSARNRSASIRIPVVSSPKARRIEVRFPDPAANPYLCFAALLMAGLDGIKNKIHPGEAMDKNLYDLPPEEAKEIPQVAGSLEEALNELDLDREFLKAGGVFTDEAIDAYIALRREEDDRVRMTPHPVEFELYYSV
It is filed as biochemical, E. coli W.

The test system of data set [2] is sheep brain glutamine synthetase. It is filed as biochemical.
The target in data set [3] is T2, M. tuberculosis glutamine synthetase (Mycobacterium tuberculosis, UniProt P9WN39). Type of data set: biochemical, M. tuberculosis Erdman.
Data set [4] has as its system M. tuberculosis Erdman. Type of data set: cell-based.
The next data set deals with M. tuberculosis. Type of data set: cell-based.
In another data set the test system is E. coli DH5α. It is filed as cell-based. Particulars: 6 h.
The subject of data set [5] is M. tuberculosis superoxide dismutase. It is filed as cell-based. The following applies: 20 μM.
Data set [6] addresses T2, M. tuberculosis glutamine synthetase. It is filed as cell-based, M. tuberculosis Erdman.
In a further data set the test system is M. avium. Type of data set: cell-based.
Another data set has as its system M. bovis BCG. It is filed as cell-based.
The test system of a further data set is M. tuberculosis H37Rv. It is filed as cell-based.
The subject of the next data set is M. avium (25291; ATCC). Type of data set: cell-based.
The target of data set [7] is T2, M. tuberculosis glutamine synthetase. It is filed as cell-based, M. tuberculosis (expressed in M. smegmatis). Particulars: 200 μM.
The test system of data set [8] is recombinant M. tuberculosis glutamine synthetase. Type of data set: cell-based, M. tuberculosis (expressed in M. smegmatis). The following applies: 200 μM.
The next data set relates to M. phlei. Type of data set: cell-based. The following applies: 3 d.
The test system of data set [9] is M. tuberculosis Erdman. It is filed as cell-based. This is another data set of the same source.
Data set [10] relates to γ-glutamylcysteine synthetase. The following applies: in contrast to glutamine synthetase; cited from earlier work.
A further data set relates to M. smegmatis. Type of data set: cell-based.
Another data set relates to M. bovis. It is filed as cell-based.
In data set [11] the test system is L. pneumophila Philadelphia 1. Type of data set: cell-based. Particulars: 24 h.

“And” between values parts separate entries of the source, which are not always exact repeats. Equal values may be shown once. Read-outs that look alike come from different tables or passages of the source. Marks after values point to notes of the source that are not given here.

T2 sequence (P9WN39 2-478): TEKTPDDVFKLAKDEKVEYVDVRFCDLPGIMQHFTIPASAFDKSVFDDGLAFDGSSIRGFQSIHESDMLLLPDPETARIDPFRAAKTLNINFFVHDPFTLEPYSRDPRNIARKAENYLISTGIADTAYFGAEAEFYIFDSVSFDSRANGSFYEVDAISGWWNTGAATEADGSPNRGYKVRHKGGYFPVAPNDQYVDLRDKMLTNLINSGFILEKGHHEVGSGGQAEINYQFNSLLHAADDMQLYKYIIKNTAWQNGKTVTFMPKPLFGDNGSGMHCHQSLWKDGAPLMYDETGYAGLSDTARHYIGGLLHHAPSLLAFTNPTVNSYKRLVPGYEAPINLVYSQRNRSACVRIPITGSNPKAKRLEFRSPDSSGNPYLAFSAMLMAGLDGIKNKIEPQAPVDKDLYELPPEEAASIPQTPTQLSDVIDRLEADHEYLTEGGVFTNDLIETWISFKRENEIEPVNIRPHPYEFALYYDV

Take `CP(=O)(O)CCC(N)C(=O)O` (racemic) [D,L-phosphinothricin]: the “remaining enzyme activity (% of initial activity)” value was < 10% and 3–10% in [1] (2 µM); not above 0.5% in data set [1] (20 μM); not above 0.5% in [1] (200 μM); approximately 25% in data set [2]; 60% in [2] (2 μM); < 10% and 3–10% in data set [3] (2 µM). The “remaining enzyme activity (% of initial activity)” value in data set [3] (20 μM) and in data set [3] (200 μM) was not above 0.5% throughout. Also, the “inactivation at the highest dose of inhibitor” value in data set [2] is “not completely inactivated”. In addition, the Ki (usually a measure of affinity in units of concentration, obtained from inhibition or displacement) in data set [2] (read-out: Ki D,L-Ppt) was determined as 16.4 µM. Besides, the “cell density lag behind uninhibited cultures” value with M. tuberculosis Erdman [4] (20, 200, 2,000 μM) was 0.5–1.5 log units.

As for `NCC[C@H](O)C(=O)N[C@@H]1C[C@H](N)[C@@H](O[C@H]2O[C@H](CN)[C@@H](O)[C@H](O)[C@H]2O)[C@H](O)[C@H]1O[C@H]1O[C@H](CO)[C@@H](O)[C@H](N)[C@H]1O` [Amikacin, amikacin], the “influence on the content of either poly-L-glutamate/glutamine or D,L-alanine” value in the data set with M. tuberculosis is listed as “little influence”. Also, the “D,L-Alanine” value is listed as 29.1 μg/10^10 Cells in the data set on M. tuberculosis (0.06 μg/ml), 26.3 μg/10^10 Cells in the data set with M. tuberculosis (0.25 μg/ml) and 12.0^a μg/10^10 Cells with M. tuberculosis (1 μg/ml). Besides, the Poly-L-Glutamate/glutamine in the data set with M. tuberculosis (0.06 μg/ml) was 49.9 μg/10^10 Cells; with M. tuberculosis (0.25 μg/ml), 43.2 μg/10^10 Cells; in the data set on M. tuberculosis (1 μg/ml), 26.0^a μg/10^10 Cells.

On to `CS(=N)(=O)CC[C@H](N)C(=O)O` (stereo partly drawn) [L-methionine-S-sulfoximine], for which the “sensitivity of growth to the inhibitor” value in the data set with E. coli DH5α is reported as “insensitive”; with M. avium, “intermediate”; in the data set with M. bovis BCG, “highly sensitive”; in the data set on M. tuberculosis H37Rv, “highly sensitive”; in the data set with M. phlei it was “insensitive”; in the data set with M. smegmatis (3 d) it was “insensitive”. The “sensitivity of growth to the inhibitor” value is “highly sensitive” with M. tuberculosis Erdman [4] (0.2-200 μM), “highly sensitive” in the data set on M. bovis and “insensitive” in [11]. Moreover, in the data set with THP-1 human monocytes, the “effect on morphology, doubling time, or viability” value is “no effect”. The “remaining enzyme activity (% of initial activity)” value in data set [1] (2 µM) was < 10% and 3–10%; in [1] (20 μM) it was less than 10%; in [1] (200 μM) it was not above 0.5%; in [2] (2 μM), approximately 40%; in data set [3] (2 µM), < 10% and 3–10%; in data set [3] (20 μM) it was less than 10%. The “remaining enzyme activity (% of initial activity)” value in data set [3] (200 μM) is on record as not above 0.5%. In [5], the “activity or quantity of extracellular superoxide dismutase compared with untreated cultures” value is recorded as “no reduction”. Moreover, the “effect on the quantity of glutamine synthetase protein exported” value in data set [6] is “no detectable effect”. Besides, in [6] (20 μM), the “cell-associated glutamine synthetase activity (plateau)” value is on record as approximately 50 mU. The “decrease of cell-associated glutamine synthetase activity from the uninhibited level” value in data set [6] (20 μM) is on record as 14%. In addition, the “extracellular glutamine synthetase activity” value in [6] (20 μM) is on record as approximately 4.5 mU. Besides, in data set [6] (20 μM), the “reduction of extracellular glutamine synthetase activity from the uninhibited level” value amounted to 80%. In addition, the “growth of intracellular bacteria” value in the data set with M. avium (25291; ATCC) (2 μM) is “uninhibited”; in the data set with M. avium (25291; ATCC) (200 μM), “strongly inhibited”; with M. tuberculosis Erdman [9] (2 μM), “slowed”; in the data set on M. tuberculosis Erdman [9] (200 μM), “strongly inhibited”. The “decrease of extracellular glutamine synthetase activity of the recombinant strain” value in data set [7] was 89%. Also, the “decrease of cell-associated glutamine synthetase activity (sum of endogenous and recombinant enzymes)” value in [8] is 17%. The “inactivation at the highest dose of inhibitor” value in data set [2] is reported as “not completely inactivated”. Moreover, in [2] (read-out: Ki L-Ms), the Ki came to 110 µM. The “D,L-Alanine” value with M. tuberculosis (0.2 μM) was found to be 21.2 μg/10^10 Cells; with M. tuberculosis (2 μM), 17.7 μg/10^10 Cells; with M. tuberculosis (20 μM), 17.8 μg/10^10 Cells. Also, the Poly-L-Glutamate/glutamine was 18.2 μg/10^10 Cells in the data set with M. tuberculosis (0.2 μM), 9.8 μg/10^10 Cells with M. tuberculosis (2 μM) and 6.1 μg/10^10 Cells in the data set with M. tuberculosis (20 μM). Besides, the “nature of the inhibition of γ-glutamylcysteine synthetase” value in data set [10] is on record as “reversible”. Besides, in the data set with M. smegmatis (200 μM), the “growth rate of parent and recombinant M. smegmatis strain” value is on record as “unaffected”. Further, the “effect on cell growth” value with M. tuberculosis Erdman [4] is reported as “blocked cell growth almost immediately”. Also, in the data set with M. tuberculosis Erdman [4], the growth result is “completely inhibited”. Besides, the “growth lag behind uninhibited cultures with L-glutamine added” value with M. tuberculosis Erdman [4] was 0.4–1.3 log units. Also, the “reversal of growth inhibition by L-glutamine” value in the data set with M. tuberculosis Erdman [4] is “almost complete”. Moreover, the “growth lag behind untreated control cultures” value with M. tuberculosis Erdman [4] (0.2 μM) is 0.1–0.2 log units. The “growth plateau below that of control cultures” value with M. tuberculosis Erdman [4] (2 μM) is reported as approximately 2 log units.

Take `CO[C@H]1/C=C/O[C@@]2(C)Oc3c(C)c(O)c4c(O)c(c(/C=N/N5CCN(C)CC5)c(O)c4c3C2=O)NC(=O)/C(C)=C\C=C\[C@H](C)[C@H](O)[C@@H](C)[C@@H](O)[C@@H](C)[C@H](OC(C)=O)[C@@H]1C` [Rifampin, rifampin]: in [6], the “effect on intracellular or extracellular glutamine synthetase activity” value is on record as “negligible effect”. In addition, the “influence on the content of either poly-L-glutamate/glutamine or D,L-alanine” value in the data set on M. tuberculosis is on record as “little influence”. For the same compound, the “D,L-Alanine” value in the data set with M. tuberculosis (0.0125 μg/ml) was 23.6 μg/10^10 Cells; with M. tuberculosis (0.05 μg/ml) it was 25.1 μg/10^10 Cells; in the data set with M. tuberculosis (0.2 μg/ml) it was 20.0^a μg/10^10 Cells. Besides, the Poly-L-Glutamate/glutamine in the data set with M. tuberculosis (0.0125 μg/ml) is 54.2 μg/10^10 Cells; in the data set on M. tuberculosis (0.05 μg/ml) it was 41.6 μg/10^10 Cells; with M. tuberculosis (0.2 μg/ml) it was 40.0^a μg/10^10 Cells.

In the case of `CC[C@@H](CO)NCCN[C@@H](CC)CO` [ethambutol], the “effect on intracellular or extracellular glutamine synthetase activity” value in data set [6] was “negligible effect”.

Take `NNC(=O)c1ccncc1` [isoniazid]: in data set [6], the “effect on intracellular or extracellular glutamine synthetase activity” value is listed as “negligible effect”.

In the case of `NC(=O)c1cnccn1` [pyrazinamide], in data set [6], the “effect on intracellular or extracellular glutamine synthetase activity” value was “negligible effect”.
